{"source": "patent US9902709B2", "about": "“Polysubstituted pyridine compound, preparation method, use and pharmaceutical composition” (PEKING UNIVERSITY FOUNDER GROUP CO., LTD., priority 2014, dated 2018)", "key": {"[1]": {"tested_on": "human colon cancer HCT-116 transplantation", "experiment": "Effect on tumor weight of human colon cancer HCT-116 transplantation nude mice (Comparative Experiment Example 2)", "format": "in vivo", "details": "QD × 17 day, sorafenib as p-toluenesulfonate, FD-1210005 free form", "from_the_text": "Comparative Experiment Example 2\nUnder aseptic conditions, the well grown human HCT-116 cell suspension in logarithmic growth phase was used to inoculate nude mouse at axillary cavity of right forelimb subcutaneously via an injector. The tumor growth state was observed regularly until the tumor grew to a volume of 100˜300 mm^3.\n48 Tumor-bearing mice with a tumor volume of 100˜300 mm^3 were selected and divided into 6 groups, which were 1 solvent control group, 3 positive control groups, and 2 test sample groups. Both the positive control group and the test sample group were administered intragastrically once a day; the solvent control group was administered with 12.5% ethanol & 12.5% water solution of polyoxyethylene castor oil once a day; intragastrical volume was 10 mL/kg.\nIn the period of administration, tumor diameter was measured twice every week, tumor volume was calculated, and animal body weight was recorded. Animal state was observed when administered, and abnormal state was recorded.\nAnimal was sacrificed with CO2, and tumor mass was peeled off, weighed, and photographed. After photographed, each tumor mass was cut into two parts, wherein one was stored in 4% paraformaldehyde, and the other was packaged into a freezing tube, and frozen in liquid nitrogen. Animal was subjected to gross anatomy, and organs were observed by eyes to find if they were normal or not.\nObservation Indexes: Tumor weight inhibiting rate (IR)=(WC−WT)/WC\nwherein WC and WT represented the average tumor weight of solvent control group and the average tumor weight of drug administration group, respectively.\nExperimental data was subjected to calculation and relevant statistic processing by Microsoft Office Excel 2003 software. Unless otherwise specified, data was represented as Mean±Standard Error (Mean±S.E.), and t-test is used in the comparison between two groups."}, "[2]": {"tested_on": "786-O humanized renal clear cell xenograft", "experiment": "Tumor-inhibiting effect on 786-O xenograft tumor-bearing mice (Experimental Example 4)", "format": "in vivo, SCID-Beige nude mice", "details": "QD × 14 days, free form; for TGI: from tumor weight", "description": "(§1) 786-O cells were cultured in RPMI-1640 culture medium containing inactivated 10% fetal bovine serum, 100 Um′ penicillin and 100 μg/ml streptomycin as well as 2 mM glutamine in an incubator at 37° C., 5% CO2. During cell culture, the initial concentration was 5×10^5 cells/ml, and the cells were separated into other bottles every 3 to 4 days when the cells reached a cell density of 100%. The tumor cells in logarithmic growth phase were used in tumor inoculation in vivo.\nFemale SCID-Beige nude mice (SPF grade) was inoculated subcutaneously at right lateral thorax with 786-O tumor cells re-suspended in PBS at 8×10^6 cells/0.1 ml. When the tumor grew into a volume of 800 mm^3, under aseptic conditions, tumor was peeled off. The well grown tumor tissues were cut into tumor mass with a size of 2×2×2 mm^3, and then were used to inoculate animal subcutaneously. When the tumor grew to a volume of about 100 mm^3, the mice were grouped and administered, 5 groups in total, 8 mice per group.\nThe volume of tumor was measure by using Vernier caliper twice a week. The long diameter and short diameter of tumor were measured. The volume was calculated by the formula: volume=0.5×long diameter×short diameter^2. After the final measurement, the animal was sacrificed and the tumor was peeled off and weighed. Based on the tumor weight of each group, tumor growth-inhibiting rate (TGI) was calculated. […] The data was effectiveness when TGI≧60% and p<0.05 by statistical analysis."}, "[3]": {"tested_on": "HCT116 xenograft", "experiment": "Tumor-inhibiting effect on HCT116 xenograft tumor-bearing mice (Experimental Example 5)", "format": "in vivo, Balb/c nude mice", "details": "QD × 14 day, free form; for TGI: from tumor weight", "description": "as §1, with “HCT116” for “786-O”, “McCoy's 5a” for “RPMI-1640”\nBalb/c nude mice was inoculated subcutaneously at right lateral thorax with HCT116 tumor cells re-suspended in PBS at 1.0×10^7 cells/0.1 ml. When the tumor grew into a volume of 800 mm^3, the animal was sacrificed and under aseptic conditions, tumor was peeled off. The well grown tumor tissues were cut into tumor mass with a size of 2×2×2 mm^3, and then were used to inoculate animal at right lateral thorax subcutaneously. 60 animals were inoculated. When the tumor grew into a volume of about 110 mm^3, the mice were grouped and administered, 5 groups in total, 8 mice per group.\nThe volume of tumor was measured by using Vernier caliper twice a week. The long diameter and short diameter of tumor were measured. The volume was calculated by the formula: volume=0.5× long diameter×short diameter^2. After the final measurement, the animal was sacrificed and the tumor was peeled off and weighed. Based on the tumor weight, tumor growth-inhibiting rate (TGI) was calculated. […] When the assay was finished, the experimental animal was subjected to euthanasia."}}, "data": [{"compound": "CNC(=O)c1cc(Oc2ccc(NC(=O)Nc3ccc(Cl)c(C(F)(F)F)c3)cc2)ccn1", "note": "[Comparative example 1, Sorafenib, reference compound]", "values": [{"measurement": "Tumor weight Mean ± S.E", "setting": "[1]; 20 mg/kg Ig", "value": "0.5628 ± 0.0617", "unit": "g"}, {"measurement": "Tumor-inhibiting rate", "setting": "[1]; 20 mg/kg Ig", "value": 43.28, "unit": "%"}, {"measurement": "Tumor weight Mean ± S.E", "setting": "[1]; 60 mg/kg Ig", "value": "0.4409 ± 0.0857", "unit": "g"}, {"measurement": "Tumor-inhibiting rate", "setting": "[1]; 60 mg/kg Ig", "value": 55.57, "unit": "%"}]}, {"compound": "Cn1cc(-c2nccc(Oc3ccc(NC(=O)Nc4ccc(Cl)c(C(F)(F)F)c4)cc3)c2Cl)cn1", "note": "[Example 2, 1-(4-chloro-3-(trifluoromethyl)phenyl)-3-(4-(3-chloro-2-(1-methyl-pyrazol-4-yl)-pyridin-4-yl-oxy)phenyl)urea]", "values": [{"measurement": "Tumor weight Mean ± S.E", "setting": "[2]; 10 mg/kg po", "value": "37 ± 20", "unit": "mg"}, {"measurement": "TGI", "setting": "[2]; 10 mg/kg po", "value": 82, "unit": "%"}, {"measurement": "Tumor weight Mean ± S.E", "setting": "[2]; 20 mg/kg po", "value": "32 ± 15", "unit": "mg"}, {"measurement": "TGI", "setting": "[2]; 20 mg/kg po", "value": 85, "unit": "%"}, {"measurement": "Tumor weight Mean ± S.E", "setting": "[2]; 40 mg/kg po", "value": "16 ± 12", "unit": "mg"}, {"measurement": "TGI", "setting": "[2]; 40 mg/kg po", "value": 92, "unit": "%"}, {"measurement": "Tumor weight (D27) Mean ± S.E", "setting": "[3]; 10 mg/kg po", "value": "0.153 ± 0.078", "unit": "g"}, {"measurement": "TGI", "setting": "[3]; 10 mg/kg po", "value": 84.1, "unit": "%"}, {"measurement": "Tumor weight (D27) Mean ± S.E", "setting": "[3]; 20 mg/kg po", "value": "0.104 ± 0.035", "unit": "g"}, {"measurement": "TGI", "setting": "[3]; 20 mg/kg po", "value": 89.1, "unit": "%"}, {"measurement": "Tumor weight (D27) Mean ± S.E", "setting": "[3]; 40 mg/kg po", "value": "0.077 ± 0.043", "unit": "g"}, {"measurement": "TGI", "setting": "[3]; 40 mg/kg po", "value": 92, "unit": "%"}, {"measurement": "TGI", "setting": "[3]; 40 mg/kg po, listed as FD-2013018", "value": 92.0, "unit": "%"}]}]}
